From patent publication US8710198B2, “Caprazene as a novel compound and derivatives thereof, and caprazol as a novel compound and derivatives thereof” (Meiji Seika Pharma Co., Ltd., priority 2003, dated 2014)

What was measured:
acid-fast bacteria = conditions: statement in words, WO 01/12643A1 / EP 1211259A1; cited from earlier work
[1] = tested on: Staphylococcus aureus ATCC607; assay: Minimum growth inhibitory concentration on agar medium by serial dilution method, Table 14; assay type: cell-based
Experimental: (§1) Minimum growth inhibitory concentrations (mcg/ml) of caprazene-1′″-amide derivatives of the formula (II) against some of microorganisms were measured on an agar culture medium by a serial dilution method according to the standard method as provided by Japanese Society of Chemotherapy. For the cultivation of Mycobacterium smegmatis (one of […]), however, there was used an agar culture medium with the addition of 1% glycerine (the same applies to in the following tests).
(§2) Minimum growth inhibitory concentrations (mcg/ml) of some of the derivative of the formula (VIII) against a variety of microorganisms were measured on an agar medium by a serial dilution method according to the standard method as provided by Japanese Society of Chemotherapy.

Micrococcus luteus FDA16 = assay: Minimum growth inhibitory concentration on agar culture medium by serial dilution method (Japanese Society of Chemotherapy); assay type: cell-based
Experimental: as §1
(§3) Minimum growth inhibitory concentrations (mcg/ml) of some of the caprazene-1′″-ester derivative of the formula (III) against some of microorganisms were measured on an agar culture medium by a serial dilution method according to the standard method as provided by Japanese Society of Chemotherapy.
(§4) Minimum growth inhibitory concentrations (mcg/ml) of some of the caprazol-1′″-amide derivative of the formula (V) against a variety of microorganisms were measured on an agar medium by a serial dilution method according to the standard method as provided by Japanese Society of Chemotherapy.
as §2, with “of the caprazol-1′″-amide-3′″-ester derivative of” for “of the derivative of”, “the formula (VI) against a” for “the formula (VIII) against a”
as §2, with “of the caprazol-3′″-ester derivative or caprazol-1′″-ester-3′″-ester derivative of” for “of the derivative of”, “the formula (VII) against a” for “the formula (VIII) against a”
as §2

[2] = tested on: Staphylococcus aureus FDA209P; assay: as above; assay type: cell-based
Experimental: as §1, §3, §4
as §2, with “of the caprazol-1′″-amide-3′″-ester derivative of” for “of the derivative of”, “the formula (VI) against a” for “the formula (VIII) against a”
as §2, with “of the caprazol-3′″-ester derivative or caprazol-1′″-ester-3′″-ester derivative of” for “of the derivative of”, “the formula (VII) against a” for “the formula (VIII) against a”
as §2

bacteria = assay: Antibacterial activity; assay type: cell-based; conditions: statement in words
enzyme MraY = enzyme MraY (Escherichia coli, UniProt P0A6W3); conditions: statement in words
Sequence of enzyme MraY (P0A6W3 whole entry): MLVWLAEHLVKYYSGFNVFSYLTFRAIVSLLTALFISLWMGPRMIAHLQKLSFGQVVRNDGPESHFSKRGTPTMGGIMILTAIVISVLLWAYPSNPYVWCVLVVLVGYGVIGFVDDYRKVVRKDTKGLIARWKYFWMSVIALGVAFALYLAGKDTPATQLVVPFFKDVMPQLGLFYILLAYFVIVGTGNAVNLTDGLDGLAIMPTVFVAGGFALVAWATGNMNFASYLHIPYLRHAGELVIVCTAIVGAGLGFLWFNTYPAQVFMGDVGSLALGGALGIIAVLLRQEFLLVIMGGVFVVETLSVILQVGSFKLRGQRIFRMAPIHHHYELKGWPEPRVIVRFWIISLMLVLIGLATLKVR

[3] = tested on: Mycobacterium smegmatis ATCC607; assay: Minimum growth inhibitory concentration on agar culture medium with 1% glycerine by serial dilution method; assay type: cell-based; conditions: agar culture medium with the addition of 1% glycerine
Experimental: as §1, §3, §4
as §2, with “of the caprazol-1′″-amide-3′″-ester derivative of” for “of the derivative of”, “the formula (VI) against a” for “the formula (VIII) against a”
as §2, with “of the caprazol-3′″-ester derivative or caprazol-1′″-ester-3′″-ester derivative of” for “of the derivative of”, “the formula (VII) against a” for “the formula (VIII) against a”

Compound | antibacterial activities against acid-fast bacteria (acid-fast bacteria) | Minimum growth inhibitory concentration (mcg/ml) against bacteria Staphylococcus aureus ATCC607 [1] [µg/mL] | Minimum growth inhibitory concentration (mcg/ml) against bacteria Micrococcus luteus FDA16 (Micrococcus luteus FDA16) [µg/mL] | Minimum growth inhibitory concentration (mcg/ml) against bacteria Staphylococcus aureus FDA209P [2] [µg/mL] | antibacterial activity (bacteria) | inhibitory activity against enzyme MraY (enzyme MraY) | Minimum growth inhibitory concentration (mcg/ml) against bacteria Mycobacterium smegmatis ATCC607 [3] [µg/mL]
CO[C@H]1[C@@H](OC)[C@H](OC(=O)C[C@@H](C)CC(=O)O[C@@H](CCCCCCCCC(C)C)CC(=O)O[C@H]2CN(C)[C@@H](C(O[C@@H]3O[C@H](CN)[C@@H](O)[C@H]3O)[C@H]3O[C@@H](n4ccc(=O)[nH]c4=O)[C@H](O)[C@@H]3O)C(=O)N(C)[C@@H]2C(=O)O)O[C@H](C)[C@H]1OC (stereo partly drawn) [caprazamycin F] | high antibacterial activities | – | – | – | – | – | –
CCCCCCCCCCCCN1C(=O)C(C(O)CN(C)C(C(=O)NC)C(OC2OC(CN)C(O)C2O)C2OC(n3ccc(=O)[nH]c3=O)C(O)C2O)N(C)C1=O (stereo not drawn) [Compound VIII-G] | – | 12.5 | 6.25 | 25 | – | – | –
CN1C[C@H](O)[C@@H](C(=O)O)N(C)C(=O)[C@@H]1[C@H](O[C@@H]1O[C@H](CN)[C@@H](O)[C@H]1O)[C@H]1O[C@@H](n2ccc(=O)[nH]c2=O)[C@H](O)[C@@H]1O [caprazol] | – | – | – | – | no antibacterial activity | inhibitory activity against enzyme MraY | –
CCCCCCCCCCCN1C(=O)C(C(O)CN(C)C(C(=O)NC)C(OC2OC(CN)C(O)C2O)C2OC(n3ccc(=O)[nH]c3=O)C(O)C2O)N(C)C1=O (stereo not drawn) [Compound VIII-F] | – | 6.25 | 6.25 | 25 | – | – | –
CCCCCCCCCCC[C@@H](CC(=O)O[C@H]1CN(C)[C@@H](C(O[C@@H]2O[C@H](CN)[C@@H](O)[C@H]2O)[C@H]2O[C@@H](n3ccc(=O)[nH]c3=O)[C@H](O)[C@@H]2O)C(=O)N(C)[C@@H]1C(=O)O)OC(=O)C[C@H](C)CC(=O)O[C@@H]1O[C@H](C)[C@@H](OC)[C@@H](OC)[C@H]1OC (stereo partly drawn) [caprazamycin E] | high antibacterial activities | – | – | – | – | – | –
CCCCCCCCCCN1C(=O)C(C(O)CN(C)C(C(=O)NC)C(OC2OC(CN)C(O)C2O)C2OC(n3ccc(=O)[nH]c3=O)C(O)C2O)N(C)C1=O (stereo not drawn) [Compound VIII-E] | – | 6.25 | 6.25 | 25 | – | – | –
CCCCCCCCCCCCCCCCCCCCCNC(=O)C1=CCN(C)C(C(OC2OC(CN)C(O)C2O)C2OC(n3ccc(=O)[nH]c3=O)C(O)C2O)C(=O)N1C (stereo not drawn) [Compound II-P] | – | – | 3.13 | 6.25 | – | – | 50
CN1C(=O)[C@H](C(O[C@@H]2O[C@H](CN)[C@@H](O)[C@H]2O)[C@H]2O[C@@H](n3ccc(=O)[nH]c3=O)[C@H](O)[C@@H]2O)N(C)CC=C1C(=O)O (stereo partly drawn) [Caprazene, caprazene] | – | – | – | – | no antibacterial activity | inhibitory activity against enzyme MraY | –
CCCCCCCCCCCCCCCCCCCNC(=O)C1=CCN(C)C(C(OC2OC(CN)C(O)C2O)C2OC(n3ccc(=O)[nH]c3=O)C(O)C2O)C(=O)N1C (stereo not drawn) [Compound II-N] | – | – | 0.78 | 6.25 | – | – | 50
CCCCCCCCCCCCCCNC(=O)C1=CCN(C)C(C(OC2OC(CNC(=O)OC(C)(C)C)C(O)C2O)C2OC(n3ccc(=O)[nH]c3=O)C(O)C2O)C(=O)N1C (stereo not drawn) [Compound II-I-N-Boc] | – | – | 12.5 | 12.5 | – | – | 25
CCCCCCCc1ccc(NC(=O)C2=CCN(C)C(C(OC3OC(CN)C(O)C3O)C3OC(n4ccc(=O)[nH]c4=O)C(O)C3O)C(=O)N2C)cc1 (stereo not drawn) [Compound II-7] | – | – | <0.20 | 1.56 | – | – | <0.20
CCCCCCCCCCCC[C@@H](CC(=O)O[C@H]1CN(C)[C@@H]([C@H](O[C@@H]2O[C@H](CN)[C@@H](O)[C@H]2O)[C@H]2O[C@@H](n3ccc(=O)[nH]c3=O)[C@H](O)[C@@H]2O)C(=O)N(C)[C@@H]1C(=O)O)OC(=O)C[C@H](C)CC(=O)O[C@@H]1O[C@@H](C)C(OC)[C@@H](OC)[C@H]1OC (stereo partly drawn) [caprazamycin C] | high antibacterial activities | – | – | – | – | – | –
CCCCCCCCCCCNC(=O)C1C(O)CN(C)C(C(OC2OC(CN)C(O)C2O)C2OC(n3ccc(=O)[nH]c3=O)C(O)C2O)C(=O)N1C (stereo not drawn) [Compound V-F] | – | – | 25 | 12.5 | – | – | 6.25
CCCCCCCCC=CCCCCCCCC(=O)OC1CN(C)C(C(OC2OC(CN)C(O)C2O)C2OC(n3ccc(=O)[nH]c3=O)C(O)C2O)C(=O)N(C)C1C(=O)O (stereo not drawn) [Compound VII-R] | – | – | 3.13 | 1.56 | – | – | 6.25
CCCCCCCCCCCCC[C@@H](CC(=O)O[C@H]1CN(C)[C@@H](C(O[C@@H]2O[C@H](CN)[C@@H](O)[C@H]2O)[C@H]2O[C@@H](n3ccc(=O)[nH]c3=O)[C@H](O)[C@@H]2O)C(=O)N(C)[C@@H]1C(=O)O)OC(=O)C[C@H](C)CC(=O)O[C@@H]1O[C@H](C)[C@@H](OC)[C@@H](OC)[C@H]1OC (stereo partly drawn) [caprazamycin A] | high antibacterial activities | – | – | – | – | – | –
caprazamycin B | high antibacterial activities | – | – | – | – | – | –
CCCCCCCCCCOC(=O)C1=CCN(C)C(C(OC2OC(CN)C(O)C2O)C2OC(n3ccc(=O)[nH]c3=O)C(O)C2O)C(=O)N1C (stereo not drawn) [Compound III-AA] | – | – | 1.56 | 12.5 | – | – | 12.5
CCCCCCCCCCNC(=O)C1C(O)CN(C)C(C(OC2OC(CN)C(O)C2O)C2OC(n3ccc(=O)[nH]c3=O)C(O)C2O)C(=O)N1C (stereo not drawn) [Compound V-E] | – | – | 25 | 25 | – | – | 6.25
CCCCCCCCCCc1ccc(NC(=O)C2=CCN(C)C(C(OC3OC(CN)C(O)C3O)C3OC(n4ccc(=O)[nH]c4=O)C(O)C3O)C(=O)N2C)cc1 (stereo not drawn) [Compound II-10] | – | – | <0.20 | 3.13 | – | – | 3.13
CCCCCCCCCCCc1ccc(NC(=O)C2=CCN(C)C(C(OC3OC(CN)C(O)C3O)C3OC(n4ccc(=O)[nH]c4=O)C(O)C3O)C(=O)N2C)cc1 (stereo not drawn) [Compound II-11] | – | – | 0.39 | 3.13 | – | – | 3.13
CCCCCCCCC=CCCCCCCCCNC(=O)C1=CCN(C)C(C(OC2OC(CN)C(O)C2O)C2OC(n3ccc(=O)[nH]c3=O)C(O)C2O)C(=O)N1C (stereo not drawn) [Compound II-R] | – | – | 1.56 | 1.56 | – | – | 1.56
CCCCCCCCCCCCCOC(=O)C1=CCN(C)C(C(OC2OC(CN)C(O)C2O)C2OC(n3ccc(=O)[nH]c3=O)C(O)C2O)C(=O)N1C (stereo not drawn) [Compound III-BB] | – | – | 3.13 | 3.13 | – | – | 12.5
CCCCCCCCCNC(=O)C1=CCN(C)C(C(OC2OC(CN)C(O)C2O)C2OC(n3ccc(=O)[nH]c3=O)C(O)C2O)C(=O)N1C (stereo not drawn) [Compound II-D] | – | – | 0.39 | 6.25 | – | – | 3.13
